Source: US9862684B2, “Modulation of K2P channels” (The Regents of the University of California, priority 2013, dated 2018)

What was measured:
K2P2.1 (TREK-1)-3G [1] = target: T1, K2P2.1 (TREK-1)-3G (Mus musculus, UniProt P97438, D309G/I307G); assay: Two-electrode voltage clamp, Xenopus oocytes, triple glycine mutant uncoupling Ct; type: cell-based, Murine; conditions: 3G mutant
T1 sequence (P97438 1-426 I307G/D309G): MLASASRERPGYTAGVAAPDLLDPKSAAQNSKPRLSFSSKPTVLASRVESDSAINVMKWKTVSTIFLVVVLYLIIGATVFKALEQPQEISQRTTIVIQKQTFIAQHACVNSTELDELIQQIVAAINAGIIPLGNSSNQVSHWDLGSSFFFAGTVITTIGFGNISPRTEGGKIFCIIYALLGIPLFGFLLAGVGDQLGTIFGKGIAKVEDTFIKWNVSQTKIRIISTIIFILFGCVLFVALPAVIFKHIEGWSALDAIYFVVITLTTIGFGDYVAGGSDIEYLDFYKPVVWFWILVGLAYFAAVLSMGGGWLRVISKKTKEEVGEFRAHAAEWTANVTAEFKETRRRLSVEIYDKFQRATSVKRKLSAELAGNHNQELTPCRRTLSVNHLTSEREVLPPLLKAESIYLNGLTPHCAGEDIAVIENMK
Experimental: (§1) I-V curves were measured by two-electrode voltage clamp of Xenopus oocytes in b, 90 mM [K^+]o. or c-e, 2 mM [K^+]o. […] Data (were measured at 20 mV (90 mM [K^+]o) or 0 mV (2 mM [K^+]o), normalized to basal channel activity, and fitted to the Hill equation. Error bars indicate s.e., n≧6, N≧2.
(§2) Murine K2P channels were cloned into pGEMHE/pMO {Bagriantsev, 2011}, IRES-GFP (Invitrogen), or pYES2-MET25 (high copy 2μ, URA3) {Minor, 1999} for expression in oocytes, HEK-293T cells, and yeast, respectively, using standard molecular biology procedures, and verified by DNA sequencing.
(§3) Two-electrode voltage clamp recordings were performed from defolliculated stage V-VI Xenopus oocytes 24-48 hours after injection with 0.015-6.0 ng cRNA, using microelectrodes (0.3-3.0 MΩ) filled with 3M KCl. Data was acquired using the GeneClamp 500B (MDS Analytical Technologies) amplifier controlled by the pClamp software (Molecular Devices), and digitized at 1 kHz using Digidata 1332A (MDS Analytical Technologies). Recording solutions (mM): 2K (96 NaCl, 2 KCl, 1.8 CaCl2, 2 MgCl2), 90K (90 KCl, 8 NaCl, 1.8 CaCl2, 2 MgCl2), were buffered 5 mM HEPES pH 7.4. For K2P recordings, currents we elicited by a 1 second long ramp from −150 to +50 mV from a holding potential of −80 mV (2K), or −100 to +50 mV from a holding potential of 0 mV (90K). […]

K2P2.1 (TREK-1)-3G [2] = target: T2, K2P2.1 (TREK-1)-3G (Mus musculus, UniProt P97438, I307G/D309G); assay: as above; type: cell-based, Murine; conditions: 3G mutant
T2 sequence (P97438 1-426 I307G/D309G): T1 sequence (P97438 1-426 I307G/D309G)
Experimental: as §1, §2, §3

For `CC1(C)c2cc(Cl)ccc2N(CCc2nnn[nH]2)c2ccc(Cl)cc21` [ML67-33, 2,7-dichloro-9,9-dimethyl-10-[2-(1H-tetrazol-5-yl)ethyl]acridine], the EC50 (K2P2.1 (TREK-1)-3G [1]) was 49.4 ± 0.1 µM and the “Emax (fold)” value (K2P2.1 (TREK-1)-3G [2]) was 12.9±1.0 fold.
